{
  "source": "patent US6818672B1",
  "about": "“Treating endometriosis or infertility, or improving fertility” (Columbia Laboratories, Inc., priority 1999, dated 2004)",
  "origin": "cited, not measured here",
  "key": {"[1]": {"tested_on": "myometrial activity, uterine blood flow, lower abdominal pain"}, "[2]": {"conditions": "intravenous administration"}},
  "data": [
    {"compound": "CC(C)(C)NCC(O)c1cc(O)cc(O)c1", "note": "(centres unmarked) [terbutaline, 5-[2-[(1,1-dimethylethyl)amino]-1-hydroxyethyl]-1,3-benzenediol]", "values": [
      {"measurement": "Duration of effect of each spray", "setting": "[1]; terbutaline inhalation, severe pain in essential dysmenorrhea", "value": 1, "unit": "h"},
      {"measurement": "Effect on myometrial activity, uterine blood flow and pain in dysmenorrhea", "setting": "[1]; women with primary dysmenorrhea", "value": "inhibit myometrial activity, increase blood flow to the uterus, and relieve the pain"},
      {"measurement": "Adverse effects", "setting": "[2]", "value": "palpitations and peripheral tremors"},
      {"measurement": "Bioavailability", "setting": "after oral administration, extensive first-pass sulphation", "value": "15 and 20%"},
      {"measurement": "Decrease of bioavailability by concomitant food intake", "setting": "oral administration with concomitant food intake", "value": 30, "unit": "%"}
    ]}
  ]
}
